Measurements from the supplement of paper PMC10307832.

Key:
Experiment in all cases: relative viability (nuclei count vs DMSO), 5 days (fraction); higher = more cells survive
ABC-1 = tested on: ABC-1
How it was run: (§1)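 Medians of duplicate plates are given as relative viability. That measure is the nuclei count in treated wells divided by the count in vehicle wells. Counts were taken on 4× images of lung cancer cell lines in 1536-well plates, 5 days after pin-tool dosing the day after seeding with one drug alone or a fixed anchor-drug dose plus five library-drug doses (not always all listed) in √10 steps.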

NCI-H2126 = tested on: NCI-H2126
How it was run: as §1

Calu-6 = tested on: Calu-6
How it was run: as §1

NCI-H1703 = tested on: NCI-H1703
How it was run: as §1

A549 = tested on: A549
How it was run: as §1

NCI-H1299 = tested on: NCI-H1299
How it was run: as §1

EKVX = tested on: EKVX
How it was run: as §1

IA-LM = tested on: IA-LM
How it was run: as §1

EBC-1 = tested on: EBC-1
How it was run: as §1

Work on CC1(C)CCC(c2ccc(Cl)cc2)=C(CN2CCN(c3ccc(C(=O)NS(=O)(=O)c4ccc(N[C@H](CCN5CCOCC5)CSc5ccccc5)c(S(=O)(=O)C(F)(F)F)c4)cc3)CC2)C1 [Navitoclax] + C[C@@H](Oc1cc(-c2cnn(C3CCNCC3)c2)cnc1N)c1c(Cl)ccc(F)c1Cl [Crizotinib] (partner 1 µM) yielded a relative viability (ABC-1; first compound 0.005 µM) of 1.19, a relative viability (ABC-1; first compound 0.01581 µM) of 1.4 and a relative viability (ABC-1; first compound 0.05 µM) of 1.19. For the same compound, the relative viability (ABC-1; first compound 0.1581 µM) was 1.14, the relative viability (ABC-1; first compound 0.5 µM) was 0.983 and the relative viability (NCI-H2126; first compound 0.005 µM) was 1.04. The relative viability (NCI-H2126; first compound 0.01581 µM) was 1.05, the relative viability (NCI-H2126; first compound 0.05 µM) was 1.07 and the relative viability (NCI-H2126; first compound 0.1581 µM) was 1.01. It also gave a relative viability (NCI-H2126; first compound 0.5 µM) of 0.972, a relative viability (Calu-6; first compound 0.005 µM) of 0.843 and a relative viability (Calu-6; first compound 0.01581 µM) of 0.812. It also gave a relative viability (Calu-6; first compound 0.05 µM) of 0.894, a relative viability (Calu-6; first compound 0.1581 µM) of 0.741 and a relative viability (Calu-6; first compound 0.5 µM) of 0.78. It also gave a relative viability (NCI-H1703; first compound 0.005 µM) of 0.73, a relative viability (NCI-H1703; first compound 0.01581 µM) of 0.602 and a relative viability (NCI-H1703; first compound 0.05 µM) of 1.22. It also gave a relative viability (NCI-H1703; first compound 0.1581 µM) of 0.726, a relative viability (NCI-H1703; first compound 0.5 µM) of 0.754 and a relative viability (A549; first compound 0.005 µM) of 0.756. The relative viability (A549; first compound 0.01581 µM) was 0.805, the relative viability (A549; first compound 0.05 µM) was 0.825 and the relative viability (A549; first compound 0.1581 µM) was 0.729. It also gave a relative viability (A549; first compound 0.5 µM) of 0.744, a relative viability (NCI-H1299; first compound 0.005 µM) of 0.99 and a relative viability (NCI-H1299; first compound 0.01581 µM) of 0.99. The relative viability (NCI-H1299; first compound 0.05 µM) was 1.02, the relative viability (NCI-H1299; first compound 0.1581 µM) was 0.926 and the relative viability (NCI-H1299; first compound 0.5 µM) was 0.981. For the same compound, the relative viability (EKVX; first compound 0.005 µM) was 1, the relative viability (EKVX; first compound 0.01581 µM) was 1.16 and the relative viability (EKVX; first compound 0.05 µM) was 1.08. It also gave a relative viability (EKVX; first compound 0.1581 µM) of 0.93, a relative viability (EKVX; first compound 0.5 µM) of 0.888 and a relative viability (IA-LM; first compound 0.005 µM) of 0.861. The relative viability (IA-LM; first compound 0.01581 µM) was 0.636, the relative viability (IA-LM; first compound 0.05 µM) was 0.875 and the relative viability (IA-LM; first compound 0.1581 µM) was 0.944. For the same compound, the relative viability (IA-LM; first compound 0.5 µM) was 0.908, the relative viability (EBC-1; first compound 0.005 µM) was 0.178 and the relative viability (EBC-1; first compound 0.01581 µM) was 0.227. It also gave a relative viability (EBC-1; first compound 0.05 µM) of 0.192, a relative viability (EBC-1; first compound 0.1581 µM) of 0.195 and a relative viability (EBC-1; first compound 0.5 µM) of 0.204.
CC1(C)CCC(c2ccc(Cl)cc2)=C(CN2CCN(c3ccc(C(=O)NS(=O)(=O)c4ccc(N[C@H](CCN5CCOCC5)CSc5ccccc5)c(S(=O)(=O)C(F)(F)F)c4)cc3)CC2)C1 [Navitoclax] + C[C@]1(O)C[C@@H](c2nc(-c3ccc4ccc(-c5ccccc5)nc4c3)c3c(N)nccn32)C1 [Linsitinib] (partner 1 µM) showed a relative viability (ABC-1; first compound 0.005 µM) of 0.641, a relative viability (ABC-1; first compound 0.01581 µM) of 0.976 and a relative viability (ABC-1; first compound 0.05 µM) of 0.81. For the same compound, the relative viability (ABC-1; first compound 0.1581 µM) was 0.703, the relative viability (ABC-1; first compound 0.5 µM) was 0.708 and the relative viability (NCI-H2126; first compound 0.005 µM) was 0.708. For the same compound, the relative viability (NCI-H2126; first compound 0.01581 µM) was 0.748, the relative viability (NCI-H2126; first compound 0.05 µM) was 0.786 and the relative viability (NCI-H2126; first compound 0.1581 µM) was 0.661. It also gave a relative viability (NCI-H2126; first compound 0.5 µM) of 0.725, a relative viability (Calu-6; first compound 0.005 µM) of 0.927 and a relative viability (Calu-6; first compound 0.01581 µM) of 0.984. The relative viability (Calu-6; first compound 0.05 µM) was 0.965, the relative viability (Calu-6; first compound 0.1581 µM) was 0.903 and the relative viability (Calu-6; first compound 0.5 µM) was 0.918. For the same compound, the relative viability (NCI-H1703; first compound 0.005 µM) was 0.935, the relative viability (NCI-H1703; first compound 0.01581 µM) was 1 and the relative viability (NCI-H1703; first compound 0.05 µM) was 1.19. For the same compound, the relative viability (NCI-H1703; first compound 0.1581 µM) was 1, the relative viability (NCI-H1703; first compound 0.5 µM) was 0.813 and the relative viability (A549; first compound 0.005 µM) was 0.681. For the same compound, the relative viability (A549; first compound 0.01581 µM) was 0.669, the relative viability (A549; first compound 0.05 µM) was 0.511 and the relative viability (A549; first compound 0.1581 µM) was 0.558. It also gave a relative viability (A549; first compound 0.5 µM) of 0.591, a relative viability (NCI-H1299; first compound 0.005 µM) of 0.949 and a relative viability (NCI-H1299; first compound 0.01581 µM) of 1. It also gave a relative viability (NCI-H1299; first compound 0.05 µM) of 0.878, a relative viability (NCI-H1299; first compound 0.1581 µM) of 0.981 and a relative viability (NCI-H1299; first compound 0.5 µM) of 0.984. For the same compound, the relative viability (EKVX; first compound 0.005 µM) was 0.953, the relative viability (EKVX; first compound 0.01581 µM) was 1.28 and the relative viability (EKVX; first compound 0.05 µM) was 0.954. For the same compound, the relative viability (EKVX; first compound 0.1581 µM) was 0.953, the relative viability (EKVX; first compound 0.5 µM) was 1.01 and the relative viability (IA-LM; first compound 0.005 µM) was 0.551. It also gave a relative viability (IA-LM; first compound 0.01581 µM) of 0.793, a relative viability (IA-LM; first compound 0.05 µM) of 0.537 and a relative viability (IA-LM; first compound 0.1581 µM) of 0.587. The relative viability (IA-LM; first compound 0.5 µM) was 0.654, the relative viability (EBC-1; first compound 0.005 µM) was 0.893 and the relative viability (EBC-1; first compound 0.01581 µM) was 1.09. The relative viability (EBC-1; first compound 0.05 µM) was 0.974, the relative viability (EBC-1; first compound 0.1581 µM) was 1.05 and the relative viability (EBC-1; first compound 0.5 µM) was 0.86.
